Measured values: patent US20260209234A1, “SUBSTITUTED DIHYDROPYRROLO[3,4-D]PYRIMIDINE COMPOUNDS AND THEIR USE IN TREATING MEDICAL CONDITIONS” (Karuna Therapeutics, Inc., priority 2022, published 2026)

How the values were obtained:
[1] = biological target: T1, hM4 receptors (Homo sapiens, UniProt P08173); assay: Human M4 PAM pERK assay; type: cell-based; details: CHO cells expressing hM4; EC20 of acetylcholine (10 nM final); TR-FRET
T1 construct: expressed in transfected cells; host or cells: CHO cells
T1 sequence (P08173 1-479): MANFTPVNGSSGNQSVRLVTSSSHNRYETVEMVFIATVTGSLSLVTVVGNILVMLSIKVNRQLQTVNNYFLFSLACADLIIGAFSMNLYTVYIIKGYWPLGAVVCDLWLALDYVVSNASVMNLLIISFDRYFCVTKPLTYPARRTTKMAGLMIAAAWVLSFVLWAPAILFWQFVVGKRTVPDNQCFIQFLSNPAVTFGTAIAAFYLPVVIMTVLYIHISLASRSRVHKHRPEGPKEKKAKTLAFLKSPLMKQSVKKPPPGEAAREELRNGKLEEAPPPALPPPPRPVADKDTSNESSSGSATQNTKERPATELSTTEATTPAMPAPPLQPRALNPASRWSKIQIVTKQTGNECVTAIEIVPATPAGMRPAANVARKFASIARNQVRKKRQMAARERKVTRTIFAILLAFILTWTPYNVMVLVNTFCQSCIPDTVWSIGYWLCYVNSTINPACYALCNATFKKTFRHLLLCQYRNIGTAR

[2] = tested on: Sprague Dawley rats pre-treated with amphetamine; assay: Amphetamine-evoked hyperlocomotion in rats; type: in vivo, rat; details: male Sprague Dawley rats; 0.5 mg/kg amphetamine s.c.; open field, distance traveled
Protocol: Animals: Adult male, Sprague Dawley rats (Envigo, Indianapolis, IN, USA) were housed in a colony maintained at 23° C. with 12 hour light/dark cycles (lights on at 0600 hour). All animals weighed 290-330 g at the beginning of the study and were equally divided into 5 groups (n=8 per group) and received one of the treatment conditions listed below. Animal protocols were approved by an Animal Care and Use Committee.
Behavioral Procedures: Studies were conducted in MedAssociates open field chambers (27.3 cm×27.3 cm×20.3 cm, MedAssociates, St. Albans, VT) in which movement was automatically tracked and recorded by 16 beam arrays. Administration pretreatment of the test article was determined to coincide with Tmax at the time of the amphetamine-evoked session with optimal route of administration. All groups were subcutaneously treated with 0.5 mg/kg amphetamine (AMP). […] Locomotor data (distance traveled) was recorded as 5-minute bins throughout the 90-minute session. […]
Statistical Analysis: Spontaneous locomotion (prior to AMP administration) was calculated as the total distance traveled during the first 30 minutes of the experimental session. AMP-evoked responses were calculated as the total distance traveled during the last 60 minutes of the experimental session which commenced immediately after AMP administration. Locomotor data were analyzed by a one-way ANOVA. […]

EC50 [1] | Compound | Dose Amount of Compound at which rats displayed a reduction in amphetamine-evoked hyperlocomotion activity [2]
≤ 100 nM | COc1nc(C#N)nc2c1C(C)N(C(=O)CC1CN(c3ccnc(C(F)(F)F)c3)C1)C2 (single isomer, unassigned) [Compound I-6, 4-Methoxy-5-methyl-6-(2-(1-(2-(trifluoromethyl)pyridin-4-yl)azetidin-3-yl)acetyl)-6,7-dihydro-5H-pyrrolo[3,4-d]pyrimidine-2-carbonitrile] | >32 mg/kg
100 to 500 nM | COc1nc(C)nc2c1C(C)N(C(=O)CC1CN(c3ccnc(C(F)(F)F)c3)C1)C2 (single isomer, unassigned) [Compound I-52, 1-(4-Methoxy-2,5-dimethyl-5,7-dihydro-6H-pyrrolo[3,4-d]pyrimidin-6-yl)-2-(1-(2-(trifluoromethyl)pyridin-4-yl)azetidin-3-yl)ethan-1-one] | 32 mg/kg
